Consider two compounds from patent US8530467B2, “Benzoimidazole compounds and uses thereof” (Neomed Institute, priority 2009, dated 2013).

Common to all, as to format: cell-based
The target in assay [1] is T1, hP2X3 (human Purinergic P2X receptors subtype 3) (Homo sapiens, UniProt P56373).
T1 construct: expressed in transfected cells
T1 sequence (P56373 1-397): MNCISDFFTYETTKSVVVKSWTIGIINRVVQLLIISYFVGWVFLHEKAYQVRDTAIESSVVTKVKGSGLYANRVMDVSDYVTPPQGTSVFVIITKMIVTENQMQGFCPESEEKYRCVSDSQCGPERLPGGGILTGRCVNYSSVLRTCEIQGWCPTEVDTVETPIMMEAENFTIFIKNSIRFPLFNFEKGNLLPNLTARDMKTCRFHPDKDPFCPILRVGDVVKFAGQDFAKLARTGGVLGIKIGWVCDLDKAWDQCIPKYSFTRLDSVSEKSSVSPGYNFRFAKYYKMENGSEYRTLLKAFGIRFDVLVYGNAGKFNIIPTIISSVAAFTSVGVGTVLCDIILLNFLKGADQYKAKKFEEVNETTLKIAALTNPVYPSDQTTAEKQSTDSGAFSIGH
The assay can be described thus: Fluo-4 calcium mobilization assay, α,β methylene-ATP as agonist (Method 2). To be noted: RLE cells stably expressing hP2X3; α,β methylene-ATP instead of ATP; read-out: Human P2X3 IC50 (μM) Method 2. The procedure:
(§1) The antagonist properties of compounds in the present invention were assayed as inhibitors of intracellular calcium increase induced by activation of hP2X3 (human Purinergic P2X receptors subtype 3, accession number AB016608 for clone A and accession number NM_002559 for clone B), expressed in RLE cells (rat liver […], ATCC. The RLE/hP2X3 cells were grown in William's medium 1× (Gibco, 12551-032), supplemented with 10% Fetal bovine serum (Wisent, 090850), 2 mM L-Glutamine (Wisent, 609-065-EL), and 600 μg/mL Geneticin G-418 (Wisent, 61234) in a humidified incubator (5% CO2 and 37° C.).
In one assay, Fluo-4 assay on FDSS7000 (Hamamatsu) was performed using cryopreserved RLE cells stably expressing hP2X3 plated in 384 well plates, 24 hr before the experiment at a density appropriate for obtaining the desired final confluence. After processing the cell plates with Fluo-4 and performing a subsequent incubation followed by washing steps, a double addition was carried out. The first addition included the test compounds diluted in HBSS buffer containing 2 mM CaCl2 preincubated for 20 min before a second addition. […] Calcium mobilization was measured with the FDSS7000 over a time lapse of 3 min, and fluorescent counts were exported for analysis. […] Hill coefficients and % inhibitions can also be determined. […]

Assay [2] has as its target T1, hP2X3 (human Purinergic P2X receptors subtype 3). In words: Fluo-4 calcium mobilization assay on FDSS7000, ATP as agonist (Method 1). Particulars: RLE cells stably expressing hP2X3; 2 uM ATP; 20 min preincubation; read-out: Human P2X3 IC50 (μM) Method 1. The procedure: as §1
In one assay, Fluo-4 assay on FDSS7000 (Hamamatsu) was performed using cryopreserved RLE cells stably expressing hP2X3 plated in 384 well plates, 24 hr before the experiment at a density appropriate for obtaining the desired final confluence. After processing the cell plates with Fluo-4 and performing a subsequent incubation followed by washing steps, a double addition was carried out. The first addition included the test compounds diluted in HBSS buffer containing 2 mM CaCl2 preincubated for 20 min before a second addition. The second addition included 2 uM of ATP. Calcium mobilization was measured with the FDSS7000 over a time lapse of 3 min, and fluorescent counts were exported for analysis. […] Hill coefficients and % inhibitions can also be determined.

Assay [3] has the same target. In words: FLIPR FLUO-4 AM calcium assay, α,β-methylene-ATP as agonist (Method 3). Particulars: hP2X3-expressing RLE cells, 500 nM α,β-methylene-ATP, read-out: Human P2X3 IC50 (μM) Method 3. The protocol: as §1
In a third assay, hP2X3-expressing cells were maintained in culture and the day before the experiment, the cells were plated in 384-black polylysine coated plates (Becton/Dickinson, 356663) at 8000 cells/well in 50 μL/well in William's medium without Geneticin, and then placed in an incubator for 24 hr. On the day of the experiment, the cells and test compounds were prepared as follows. […] Experiments were initiated by measuring a baseline fluorescence reading for 10 sec, followed by adding 12.5 μL of compounds and data sampling for a total 280 seconds. […] During entire experiment, fluorescence emission was read by the FLIPR on board CCD camera using filter with emission wavelength of 520-545 nm. […] Hill coefficients and % inhibitions can also be determined.

Consider `CNC(=O)c1cc(F)c(-c2nc3cc(C)ccc3n2C[C@H]2CN(C(=O)OC)CCO2)c(F)c1` [Example 3, (S)-methyl 2-((2-(2,6-difluoro-4-(methylcarbamoyl)phenyl)-5-methyl-1H-benzo[d]imidazol-1-yl)methyl)morpholine-4-carboxylate], for which the IC50 in assay [1] came out at 0.014 µM; in assay [2], 0.007 µM; in assay [3], 0.016 µM.

As for `CNC(=O)c1cc(F)c(-c2nc3cc(C)ccc3n2C[C@@H]2CN(C(=O)OC)CCO2)c(F)c1` [Example 5, (R)-methyl 2-((2-(2,6-difluoro-4-(methylcarbamoyl)phenyl)-5-methyl-1H-benzo[d]imidazol-1-yl)methyl)morpholine-4-carboxylate], the IC50 in assay [3] amounted to 0.016 µM.
